Assays:
Glycine max [1] = test: Number of nodules in soybean plants inoculated with Bradirhizobium japonicum and watered with miPEP; type: in vivo; settings: watering with 0.1 μM miPEP vs solvent (FIGS. 2, 9) or control peptide (FIG. 5)
Experimental: (§1) After sterilisation of the grains for 3 min in bleach diluted ¼, then rinsing with sterile water, the grains are incubated for 2 hours in water. Lastly, the grains are placed in a petri dish with damp paper towels at 28° C. Once sprouted, the grains are placed in a small pot containing oil dry® medium under a glass cover. After a few days' growth, the plants of which the development is uniform are selected for the experiment and transferred into a larger pot.
(§2) The bacteria are placed in culture in Campbel liquid medium (K2PO4:0.5 g/l, MgSO4 7H2O: 0.2 g/l, NaCl: 0.1 g/l, mannitol: 10 g/l, yeast extract: 2.5 g/l, Casamino acid: 0.5 g/l) (5 ml) at 28° C., then transferred to an Erlenmeyer flask containing 100 ml of Campbel medium. After a few days of culture, when the DO is 0.3 at 595 nm, the 100 ml of culture of B. japonicum were centrifuged for 30 min at 4000 rpm. The supernatant was discarded and the pellet resuspended in “caisson” culture medium (Lullien et al., Plant gene expression in effective and ineffective root nodules of alfalfa (Medicago sativa). Plant Mol Biol 9: 469-478, 1987) to achieve a DO of 0.05 at 595 nm. Each plant is inoculated with 20 ml of this solution. The plants are regularly watered with the “caisson” medium.
(§3) The treatment is performed by watering plants with the concentrated solution of miPEP or the equivalent of solvent solution for the control treatment. […]

Glycine max [2] = test: Fresh pod weight of soybean plants watered with miPEP; type: in vivo; settings: watering with 0.1 μM miPEP172c vs solvent (FIG. 4)
Experimental: as §1, §2, §3

NIN = test: Expression of the gene NIN in roots of watered soybean plants (qRT-PCR); type: in vivo, Glycine max; settings: plants watered with miPEP172c at 0,01 μM vs control peptide at 0.01 μM (FIG. 6)
Experimental: (§4) Each experiment was repeated from two to three times.
(§5) The plants are regularly watered with the “caisson” medium.
(§6) The treatments are performed every two days.

nifD = test: Expression of nifD revealed by nifD-LacZ fusions in nodules; type: in vivo, Glycine max; settings: nodules of plants treated with miPEP172c vs control peptide (FIGS. 6 and 8)
Experimental: as §1, §2, §3

Glycine max [3] = test: Nitrogen concentration in the aerial parts of soybean plants watered with miPEP; type: in vivo; settings: watering with 0.1 μM miPEP172c vs solvent (FIG. 3)
Experimental: The “nitrogen content” corresponds to the concentration of nitrogen in the plant or in part of the plant. For example, it can be the concentration of nitrogen in the aerial parts in g of nitrogen per kg of dry leaf weight. This concentration of nitrogen can be determined by techniques known to a person skilled in the art. For example, one method consists of burning a sample of known mass at an elevated temperature (approximately 900° C.) in the presence of oxygen, leading to a release of carbon dioxide, water, and nitrogen. The gases are then passed over particular columns (such as an aqueous potassium hydroxide solution), which absorb the carbon dioxide and water. A column containing a detector of thermal conductivity at the end is then used to separate the nitrogen from all residual carbon dioxide and the water, and the content of residual nitrogen is quantified.
as §5, §6

miR172c = test: Measurement of the expression of miR172c in roots of watered soybean plants (qRT-PCR); type: in vivo, Glycine max; settings: plants watered with miPEP172c at 0.1 μM vs control (FIG. 1) or 0.01 μM vs control peptide (FIG. 6)
Experimental: as §4, §5, §6

Glycine max [4] = test: Root mass (fresh root weight) of soybean plants watered with miPEP; type: in vivo; settings: watering with miPEP172c vs control peptide at 0.01 μM (FIG. 7)
Experimental: as §1, §2, §3

NNC1 = test: Expression of the gene NNC1 in roots of watered soybean plants (qRT-PCR); type: in vivo, Glycine max; settings: plants watered with miPEP172c at 0,01 μM vs control peptide at 0.01 μM (FIG. 6)
Experimental: as §4, §5, §6

NSP1 = settings: plants watered with miPEP172c at 0,01 μM vs control peptide at 0.01 μM (FIG. 6)
Experimental: as §1, §2, §3

ENOD40-1 = test: Expression of the gene ENOD40-1 in roots of watered soybean plants (qRT-PCR); type: in vivo, Glycine max; settings: plants watered with miPEP172c at 0,01 μM vs control peptide at 0.01 μM (FIG. 6)
Experimental: as §4, §5, §6

Hb2 = test: Expression of the gene Hb2 in roots of watered soybean plants (qRT-PCR); type: in vivo, Glycine max; settings: plants watered with miPEP172c at 0,01 μM vs control peptide at 0.01 μM (FIG. 6)
Experimental: as §4, §5, §6

nifH = test: Expression of the gene nifH in roots of watered soybean plants (qRT-PCR); type: in vivo, Glycine max; settings: plants watered with miPEP172c at 0,01 μM vs control peptide at 0.01 μM (FIG. 6)
Experimental: as §4, §5, §6

With “miPEP167c: peptide MKGVHHFFHHKYVGLRG coded by an open reading frame of the primary transcript of miR167c in Glycine max (Glycine max)” the “number of nodules (per gram of fresh root weight)” value (Glycine max [1]) was “significantly increases”.
For “miPEP172c: peptide MWVLCLFCWPTYTHGS coded by an open reading frame of the primary transcript of miR172c in Glycine max (SEQ ID NO: 2; Glycine max)”, the fresh pod weight (Glycine max [2]) was “significantly increases”, the “relative expression of the gene NIN” value (NIN) was “increase” and the “fixation of nitrogen (NifH expression by RT-qPCR and nifD::LacZ fusions)” value (nifD) was “effective fixation of nitrogen”. The “nitrogen content of the aerial parts” value (Glycine max [3]) was “significantly increases”, the “number of nodules (per gram of fresh root weight)” value (Glycine max [1]) was “significantly increases” and the “relative expression of miR172c” value (miR172c) was “increases”. The “development of the roots (fresh root weight)” value (Glycine max [4]) was “No effect”, the “relative expression of the gene NNC1” value (NNC1) was “reducing” and the “relative expression of the gene NSP1” value (NSP1) was “increase”. For the same substance, the “relative expression of the gene ENOD40-1” value (ENOD40-1) was “increase”, the “relative expression of the gene Hb2” value (Hb2) was “increase” and the “relative expression of the gene NifH” value (nifH) was “increase”.

From US20250127136A1, “NOVEL METHOD FOR PROMOTING NODULATION IN PLANTS” (UNIVERSITE TOULOUSE III-PAUL SABATIER, priority 2015, published 2025)
